# Results reported in patent US12397007B2, “Methods of treatment with combinations of cannabidiol and psilocybin” (ECP Pharma, priority 2021, dated 2025).
# Tests used:
# Iba1+ microglia = experiment: Moderate fluid-percussion TBI, immunohistochemical analysis of microglia reactivity; assay type: in vivo, rat
# Method: (§1) Another study was conducted in rats to evaluate the synergy of an oral combination of psilocybin and CBD in mitigating TBI-induced pathology in a preclinical model of TBI. In this study, adult rats were exposed to a moderate fluid-percussion pulse over the right parietal cortex.
# (§2) Psilocybin (1.5 mg/kg) and/or CBD (5 mg/kg) in 1 mL of ddH2O (or vehicle/ddH2O alone) was dosed by oral gavage at 1-hour post-injury, and for 1×/day for 6 consecutive days thereafter, resulting in 7 total dosage administrations. Animals receiving psilocybin+CBD were exposed to a traumatic/fearful stimulus (predatory urine) to evaluate anxiety-like behavior. Outcome measurements included sensorimotor (cylinder test), cytoprotection (volumetric analyses of contusion and cortical atrophy), and neuroinflammation (microglia reactivity).
# Boxes demarcate representative cells in which changes could be compared.
# rat blast model of TBI = experiment: Rat blast model of TBI, light dark box; assay type: in vivo; settings: CBD 5 mg/kg IP, psilocybin 1.5 mg/kg PO from one hour after injury, 7 total doses; vs vehicle; FIG. 2
# Description: This increased time spent in light was not seen with either CBD or psilocybin when dosed separately.
# [1] = test system: adult rats exposed to a moderate fluid-percussion pulse over the right parietal cortex; experiment: Moderate fluid-percussion TBI, stereological volumetric analyses of contusion and cortical atrophy; assay type: in vivo, rat; settings: approximately 4 weeks after injury; relative to injured vehicle-control animals; FIG. 5 right panel
# Method: as §1, §2
# [2] = preliminary quantitative analyses, FIG. 7
structure (smiles),measurement,setting,value
"C=C(C)[C@@H]1CCC(C)=C[C@H]1c1c(O)cc(CCCCC)cc1O [CBD, Cannabidiol]","reactive microglia morphology, CA1","Iba1+ microglia; CBD 5 mg/kg alone vs TBI/Vehicle, FIG. 6 bottom row",seemed to reduce reactive microglia morphology
same,"number of Iba1+ cells, dentate gyrus of ipsilateral hippocampus","Iba1+ microglia; CBD 5 mg/kg alone vs controls, FIG. 6 middle row",significantly greater in number in controls compared to CBD group
same,"Iba1+ cell density, CA1","Iba1+ microglia; CBD 5 mg/kg alone vs injured vehicle, FIG. 6 bottom row",no overt differences
same,injury-induced Iba+ microglia changes,"Iba1+ microglia; CBD 5 mg/kg alone, FIG. 6",normalization of injury-induced Iba+microglia changes
same,"density of Iba1+ cells, pericontusional cortex","Iba1+ microglia; CBD 5 mg/kg alone, FIG. 6 top row",reduced density of Iba1+ cells
same,"activated microglia phenotypes, cortical penumbra",Iba1+ microglia; [2],significantly decreased
same,"overall microglia numbers, cortical penumbra",Iba1+ microglia; [2],reduced overall microglia numbers
same,"stress, time spent in light in the light dark box",rat blast model of TBI,not seen
same,cortical volume atrophy,[1],trended positively towards normalization
